Laboratory results as given in patent publication US7385026B1, “Modified ghrelin polypeptides” (priority 1999, dated 2008).
Square brackets hold non-standard residues; d marks the D form. Peptide text beside a SMILES is read from it. * marks the point of attachment. Octanoyl = CCCCCCCC(=O)*; Octyl = CCCCCCCC*

target: T1, rat GHS-receptor (GHR-R) (Rattus norvegicus, UniProt O08725); test: Ca-releasing activity (increase in intracellular calcium) in CHO-GHSR62 cells, FLIPR; type: cell-based; settings: not given
T1 construct: A full-length cDNA for rat GHR-R was obtained by RT-PCR; expressed in transfected cells
T1 sequence (O08725 whole entry): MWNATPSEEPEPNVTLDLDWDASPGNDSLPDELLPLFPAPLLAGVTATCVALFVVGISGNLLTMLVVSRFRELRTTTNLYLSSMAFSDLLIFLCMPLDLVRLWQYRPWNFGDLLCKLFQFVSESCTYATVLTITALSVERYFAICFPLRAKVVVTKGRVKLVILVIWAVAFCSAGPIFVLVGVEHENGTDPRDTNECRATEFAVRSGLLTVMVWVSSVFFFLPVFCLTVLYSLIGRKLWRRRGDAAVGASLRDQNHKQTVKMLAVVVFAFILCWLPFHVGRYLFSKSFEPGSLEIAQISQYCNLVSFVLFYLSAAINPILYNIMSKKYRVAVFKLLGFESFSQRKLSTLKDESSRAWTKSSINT
Excerpt: To assay an increase in the intracellular calcium ion concentration (Ca-releasing activity) occurring upon binding of a GH secretagogue (GHS) to GHS-receptor (GHR-R), a cell strain expressing rat GHR-R was created in the following manner. A full-length cDNA for rat GHR-R was obtained by RT-PCR (reverse transcriptase-polymerase chain reaction) where a cDNA derived from rat brain was used as template. From the nucleotide sequence of known rat GHR-R [K. K. Mckee, et al, Molecular Endocrinology 11, 415-423 (1997)], sense and antisense primers consisting of the following nucleotide sequences were synthesized.
The amplified cDNA was ligated to vector pcDNAIII (Invitrogen) to construct expression vector GHSR-pcDNAIII. CHO cells were transformed via the expression vector, and the transformed cells stably expressing GHR-R were selected in a medium containing 1 μg/ml G418. […] A change in the intracellular calcium ion concentration (Ca-releasing activity) was measured by an FLIPR system (Molecular Device). Before this measurement, 4×10^4 CHO-GHSR62 cells were put to a 96-well microplate with black wall (Corning Co., Ltd) and cultured for 12 to 15 hours. Then, the cells were incubated with 4 μM fluorescent Fluo4 (Molecular Probe Co., Ltd) for 1 hour and washed four times with Hank's BSS (Hank's Balanced Salt Solution) containing 20 mM Hepes ([N-2-hydroxyethyl]-piperazine-N-[2-ethanesulfonic acid]) and 2.5 mM probenecid, and the Ca-releasing activity was assayed by adding a sample and measuring a change in the fluorescence.
Peptide fragments obtained by partially digested the rat- and human-derived ghrelins by various proteases, or chemically synthesized peptides, were examined for their Ca releasing activity in order to determine a core amino acid sequence and the optimum chain length of a modifying fatty acid necessary for Ca-releasing activity.
The Ca-increasing activities of the ghrelin derivative peptide-type compounds synthesized in Example 10 and the natural ghrelin peptide were measured in the same manner as in Example 1.
In this examination, the intracellular Ca-releasing activity in CHO cells expressing rat GSH receptor was used as the indicator.

Row | SMILES | Ca-releasing activity of ghrelin (1-4) after amidation relative to before amidation
1 | CCCCCCCC(=O)OC[C@H](NC(=O)[C@H](CO)NC(=O)CN)C(=O)N[C@@H](Cc1ccccc1)C(N)=O [Compound 33-2, Ghrelin (1-4)-amide] (H-GSS(Octanoyl)F-NH2) | about 3 times

same assay, conditions: CHO-GHSR62 cells (CHO cells expressing rat GHS receptor), FLIPR; read-out: Ca-releasing activity EC50

Row | SMILES | EC50 [nM]
2 | CCCC[C@H](NC(=O)[C@H](CO)NC(=O)CN)C(=O)N[C@@H](Cc1ccccc1)C(=O)N[C@@H](CC(C)C)C(=O)N[C@@H](CO)C(=O)N1CCC[C@H]1C(=O)N[C@@H](CCC(=O)O)C(=O)N[C@@H](Cc1c[nH]cn1)C(=O)N[C@@H](CCC(N)=O)C(=O)N[C@@H](CCCNC(=N)N)C(=O)N[C@H](C(=O)N[C@@H](CCC(N)=O)C(=O)N[C@@H](CCC(N)=O)C(=O)N[C@@H](CCCNC(=N)N)C(=O)N[C@@H](CCCCN)C(=O)N[C@@H](CCC(=O)O)C(=O)N[C@@H](CO)C(=O)N[C@@H](CCCCN)C(=O)N[C@@H](CCCCN)C(=O)N1CCC[C@H]1C(=O)N1CCC[C@H]1C(=O)N[C@@H](C)C(=O)N[C@@H](CCCCN)C(=O)N[C@@H](CC(C)C)C(=O)N[C@@H](CCC(N)=O)C(=O)N1CCC[C@H]1C(=O)N[C@@H](CCCNC(=N)N)C(=O)O)C(C)C [Compound 73, [Nle^3]-hGhrelin] | 2800
3 | CCCCCCCC(=O)OC[C@H](NC(=O)[C@H](CO)NC(=O)CN)C(=O)N[C@@H](Cc1ccccc1)C(=O)N[C@@H](CC(C)C)C(=O)N[C@@H](CO)C(=O)N1CCC[C@H]1C(=O)N[C@@H](CCC(=O)O)C(=O)N[C@@H](Cc1c[nH]cn1)C(=O)N[C@@H](CCC(N)=O)C(=O)N[C@@H](CCCCN)C(=O)N[C@@H](C)C(=O)N[C@@H](CCC(N)=O)C(=O)N[C@@H](CCCNC(=N)N)C(=O)N[C@@H](CCCCN)C(=O)N[C@@H](CCC(=O)O)C(=O)N[C@@H](CO)C(=O)N[C@@H](CCCCN)C(=O)N[C@@H](CCCCN)C(=O)N1CCC[C@H]1C(=O)N1CCC[C@H]1C(=O)N[C@@H](C)C(=O)N[C@@H](CCCCN)C(=O)N[C@@H](CC(C)C)C(=O)N[C@@H](CCC(N)=O)C(=O)N1CCC[C@H]1C(=O)N[C@@H](CCCNC(=N)N)C(=O)O [Compound 22, [des Gln^14]-rGhrerin] (H-GSS(Octanoyl)FLSPEHQKAQRKESKKPPAKLQPR-OH; N-terminus and C-terminus assumed) | 1.5
4 | CC(C)C[C@H](NC(=O)[C@H](CCCCN)NC(=O)[C@H](C)NC(=O)[C@@H]1CCCN1C(=O)[C@@H]1CCCN1C(=O)[C@H](CCCCN)NC(=O)[C@H](CCCCN)NC(=O)[C@H](CO)NC(=O)[C@H](CCC(=O)O)NC(=O)[C@@H](N)CCCCN)C(=O)N[C@@H](CCC(N)=O)C(=O)N1CCC[C@H]1C(=O)N[C@@H](CCCNC(=N)N)C(=O)O [Compound 19, Ghrelin (16-28)] | > 10000
5 | CCCCCCCCOC[C@@H](NC(=O)[C@H](CO)NC(=O)CN)C(=O)N[C@H](Cc1ccccc1)C(=O)N[C@@H](CC(C)C)C(=O)N[C@@H](CO)C(=O)N1CCC[C@H]1C(N)=O [Compound 53, [^DSer^3(Octyl), ^DPhe^4]-Ghrelin (1-7)-amide] | > 10000
6 | CCCCCCCCOC[C@H](NC(=O)[C@H](CO)NC(=O)CN)C(=O)N[C@@H](Cc1ccccc1)C(=O)N[C@@H](CC(C)C)C(=O)N[C@@H](CO)C(=O)N1CCC[C@H]1C(N)=O [Compound 50, [Ser^3(Octyl)]-Ghrelin (1-7)-amide] | 5.8
7 | CC(C)C[C@H](NC(=O)[C@H](CCCCN)NC(=O)[C@H](C)NC(=O)[C@@H]1CCCN1C(=O)[C@@H]1CCCN1C(=O)[C@H](CCCCN)NC(=O)[C@H](CCCCN)NC(=O)[C@H](CO)NC(=O)[C@H](CCC(=O)O)NC(=O)[C@H](CCCCN)NC(=O)[C@H](CCCNC(=N)N)NC(=O)[C@H](CCC(N)=O)NC(=O)[C@H](CCC(N)=O)NC(=O)[C@@H](NC(=O)[C@H](CCCNC(=N)N)NC(=O)[C@H](CCC(N)=O)NC(=O)[C@H](Cc1c[nH]cn1)NC(=O)[C@H](CCC(=O)O)NC(=O)[C@@H]1CCCN1C(=O)[C@H](CO)NC(=O)[C@H](CC(C)C)NC(=O)[C@H](Cc1ccccc1)NC(=O)[C@H](COCc1ccccc1)NC(=O)[C@H](CO)NC(=O)CN)C(C)C)C(=O)N[C@@H](CCC(N)=O)C(=O)N1CCC[C@H]1C(=O)N[C@@H](CCCNC(=N)N)C(=O)O [Compound 67, [Ser^3(Bzl)]-hGhrelin] | 7.6
8 | CCCCCCCCSC[C@H](NC(=O)[C@H](CO)NC(=O)CN)C(=O)N[C@@H](Cc1ccccc1)C(=O)N[C@@H](CC(C)C)C(=O)N[C@@H](CO)C(=O)N1CCC[C@H]1C(N)=O [Compound 48, [Cys^3(Octyl)]-Ghrelin (1-7)-amide] (H-GSC(Octyl)FLSP-NH2) | 7.4
9 | CCCCCCCCOC[C@H](NC(=O)CCCCN)C(=O)N[C@@H](Cc1ccccc1)C(=O)N[C@@H](CC(C)C)C(=O)NCCN [Compound 85, [N-Aminopentanoyl, Ser^3(Octyl)]-Ghrelin (3-5), aminoethylamide] | 3.5
10 | CCCCCCCC(=O)OC[C@H](NC(=O)[C@H](CO)NC(=O)CN)C(=O)N[C@H](Cc1ccccc1)C(=O)N[C@@H](CCCCN)C(N)=O [Compound 39, [^DPhe^4, Lys^5]-Ghrelin (1-5)-amide] (H-GSS(Octanoyl)[dF]K-NH2) | 1700
11 | CCCCCCCSSC[C@H](NC(=O)[C@H](CO)NC(=O)CN)C(=O)N[C@@H](Cc1ccccc1)C(=O)N[C@@H](CC(C)C)C(=O)N[C@@H](CO)C(=O)N1CCC[C@H]1C(=O)N[C@@H](CCC(=O)O)C(=O)N[C@@H](Cc1c[nH]cn1)C(=O)N[C@@H](CCC(N)=O)C(=O)N[C@@H](CCCNC(=N)N)C(=O)N[C@H](C(=O)N[C@@H](CCC(N)=O)C(=O)N[C@@H](CCC(N)=O)C(=O)N[C@@H](CCCNC(=N)N)C(=O)N[C@@H](CCCCN)C(=O)N[C@@H](CCC(=O)O)C(=O)N[C@@H](CO)C(=O)N[C@@H](CCCCN)C(=O)N[C@@H](CCCCN)C(=O)N1CCC[C@H]1C(=O)N1CCC[C@H]1C(=O)N[C@@H](C)C(=O)N[C@@H](CCCCN)C(=O)N[C@@H](CC(C)C)C(=O)N[C@@H](CCC(N)=O)C(=O)N1CCC[C@H]1C(=O)N[C@@H](CCCNC(=N)N)C(=O)O)C(C)C [Compound 57] | 1.4
12 | CC(=O)OC[C@H](NC(=O)[C@H](CO)NC(=O)CN)C(=O)N[C@@H](Cc1ccccc1)C(=O)N[C@@H](CC(C)C)C(=O)N[C@@H](CO)C(=O)N1CCC[C@H]1C(=O)N[C@@H](CCC(=O)O)C(=O)N[C@@H](Cc1c[nH]cn1)C(=O)N[C@@H](CCC(N)=O)C(=O)N[C@@H](CCCCN)C(=O)N[C@@H](C)C(=O)N[C@@H](CCC(N)=O)C(=O)N[C@@H](CCC(N)=O)C(=O)N[C@@H](CCCNC(=N)N)C(=O)N[C@@H](CCCCN)C(=O)N[C@@H](CCC(=O)O)C(=O)N[C@@H](CO)C(=O)N[C@@H](CCCCN)C(=O)N[C@@H](CCCCN)C(=O)N1CCC[C@H]1C(=O)N1CCC[C@H]1C(=O)N[C@@H](C)C(=O)N[C@@H](CCCCN)C(=O)N[C@@H](CC(C)C)C(=O)N[C@@H](CCC(N)=O)C(=O)N1CCC[C@H]1C(=O)N[C@@H](CCCNC(=N)N)C(=O)O [Compound 8, [Ser^3(Acetyl)]-rGhrelin] | 780
13 | CCCCCCCCOC[C@H](NC(=O)CCCCN)C(=O)N[C@@H](Cc1ccccc1)C(=O)N[C@@H](CCCCN)C(N)=O [Compound 76, [N-Aminopentanoyl, Ser^3(Octyl), Lys^5]-Ghrelin (3-5)-amide] | 12
14 | CCCCCCCC(=O)OC[C@H](NC(=O)[C@H](Cc1c[nH]cn1)NC(=O)CN)C(=O)N[C@@H](Cc1ccccc1)C(=O)N[C@@H](CC(C)C)C(=O)N[C@@H](CO)C(=O)N1CCC[C@H]1C(N)=O [Compound 45, [His^2]-Ghrelin (1-7)-amide] (H-GHS(Octanoyl)FLSP-NH2) | 35
15 | CCCCCCCC(=O)OC[C@H](NC(=O)[C@H](CO)NC(=O)CNC(=O)[C@@H](N)Cc1ccc(O)cc1)C(=O)N[C@@H](Cc1ccccc1)C(=O)N[C@@H](CC(C)C)C(=O)N[C@@H](CO)C(=O)N1CCC[C@H]1C(=O)N[C@@H](CCC(=O)O)C(=O)N[C@@H](Cc1c[nH]cn1)C(=O)N[C@@H](CCC(N)=O)C(=O)N[C@@H](CCCCN)C(=O)N[C@@H](C)C(=O)N[C@@H](CCC(N)=O)C(=O)N[C@@H](CCC(N)=O)C(=O)N[C@@H](CCCNC(=N)N)C(=O)N[C@@H](CCCCN)C(=O)N[C@@H](CCC(=O)O)C(=O)N[C@@H](CO)C(=O)N[C@@H](CCCCN)C(=O)N[C@@H](CCCCN)C(=O)N1CCC[C@H]1C(=O)N1CCC[C@H]1C(=O)N[C@@H](C)C(=O)N[C@@H](CCCCN)C(=O)N[C@@H](CC(C)C)C(=O)N[C@@H](CCC(N)=O)C(=O)N1CCC[C@H]1C(=O)N[C@@H](CCCNC(=N)N)C(=O)O [Compound 42, [N-Tyr]-rGhrelin] | 120
16 | CCCCCCCCOC[C@H](NC(=O)CCCCN)C(=O)N[C@@H](Cc1ccccc1)C(=O)N[C@@H](CC(C)C)C(=O)NC [Compound 82, [N-Aminopentanoyl, Ser^3(Octyl)]-Ghrelin (3-5)-methylamide] | 12
17 | CCCCCCCC(=O)OC[C@H](NC(=O)[C@H](CO)NC(=O)CN)C(=O)N[C@@H](Cc1ccccc1)C(N)=O [Compound 33-2, Ghrelin (1-4)-amide] (H-GSS(Octanoyl)F-NH2) | 160

same assay, conditions: CHO-GHSR62 cells; listed as Ghrelin-27

Row | SMILES | Ca-releasing activity (in words)
18 | CCCCCCCC(=O)OC[C@H](NC(=O)[C@H](CO)NC(=O)CN)C(=O)N[C@@H](Cc1ccccc1)C(=O)N[C@@H](CC(C)C)C(=O)N[C@@H](CO)C(=O)N1CCC[C@H]1C(=O)N[C@@H](CCC(=O)O)C(=O)N[C@@H](Cc1c[nH]cn1)C(=O)N[C@@H](CCC(N)=O)C(=O)N[C@@H](CCCCN)C(=O)N[C@@H](C)C(=O)N[C@@H](CCC(N)=O)C(=O)N[C@@H](CCCNC(=N)N)C(=O)N[C@@H](CCCCN)C(=O)N[C@@H](CCC(=O)O)C(=O)N[C@@H](CO)C(=O)N[C@@H](CCCCN)C(=O)N[C@@H](CCCCN)C(=O)N1CCC[C@H]1C(=O)N1CCC[C@H]1C(=O)N[C@@H](C)C(=O)N[C@@H](CCCCN)C(=O)N[C@@H](CC(C)C)C(=O)N[C@@H](CCC(N)=O)C(=O)N1CCC[C@H]1C(=O)N[C@@H](CCCNC(=N)N)C(=O)O [Compound 22, [des Gln^14]-rGhrerin] (H-GSS(Octanoyl)FLSPEHQKAQRKESKKPPAKLQPR-OH; N-terminus and C-terminus assumed) | completely the same Ca-releasing activity

same assay, conditions: Table 3, Example 9: protease fragments or synthetic peptides; CHO-GHSR62 cells; read-out: Ca-releasing activity (EC50)

Row | SMILES | EC50 [nM]
19 | CC(C)C[C@H](NC(=O)[C@H](CCCCN)NC(=O)[C@H](C)NC(=O)[C@@H]1CCCN1C(=O)[C@@H]1CCCN1C(=O)[C@H](CCCCN)NC(=O)[C@H](CCCCN)NC(=O)[C@H](CO)NC(=O)[C@H](CCC(=O)O)NC(=O)[C@@H](N)CCCCN)C(=O)N[C@@H](CCC(N)=O)C(=O)N1CCC[C@H]1C(=O)N[C@@H](CCCNC(=N)N)C(=O)O [Compound 19, Ghrelin (16-28)] | > 10000
